Results: PubChem BioAssay (NCI)
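The compound was tested at five concentrations on cells cultured in 96-well plates, with a 48-hour exposure period. Here, GI50 denotes the concentration required for 50% inhibition of growth. Definition used: TGI = concentration required for complete inhibition of growth.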

tested on: MDA-MB-468 breast; experiment: growth of human tumour cells (NCI), 48 h

Row | SMILES | GI50 [µM] | TGI [µM]
1 | O=C(CCCCCCNC(=O)C(O)(O)C(F)(F)F)Nc1ncc(-c2ccccc2)s1 | 0.748 | 10.9
2 | O=c1oc2ccc(Br)cc2c(=O)n1-c1ccc(F)cc1F | 2.09 | 5.92
3 | O=C1C(c2ccccc2)=C(N2CCc3ccccc32)OC1(Cl)Cl | 1.63 | 3.25
4 | COC[C@]12CC[C@@H](C)[C@H](C)[C@H]1C1=CC[C@@H]3[C@@]4(C)CCCNC(C)(C)[C@@H]4CC[C@@]3(C)[C@]1(C)CC2 | 1.71 | 3.43
5 | CC/C=C/C/C=C/C/C=C/C/C=C/C/C=C/C/C=C/CCC(=O)Nc1ccn([C@@H]2O[C@H](CO)[C@@H](O)C2(F)F)c(=O)n1 | 0.384 | > 64.6
6 | O=C(Nc1ccc(-n2cc(-c3ccncc3)c(-c3ccc(O)c(Cl)c3)n2)cc1)Nc1cccc(Cl)c1Cl | 9.23 | > 32.5
7 | NC(=S)N/N=C/c1cc(-c2cccc(N)c2)ccn1 | 1.43 | 4.49
8 | C/C(=N\NC(=S)N1CC2CCC(CC2)C1)c1ccccn1 | < 0.01 | 0.104
9 | COc1ccc(Cc2cnc(NC(=O)c3ccc4c(c3)OCCO4)s2)cc1 | 0.0376 | 24.7
10 | O=C(N/N=C/c1ccc([N+](=O)[O-])o1)c1ccc(O)cc1 | 2.44 | 10.7
11 | COc1ccc2c(c1)C(C)Cc1c(ncnc1-n1cnc3cc(C)ccc31)N2C (stereo unspecified) | 0.0341 | 18.9
12 | Clc1cc(Cl)cc(Nc2ccc3cc(OCCCN4CCOCC4)ccc3n2)c1 | 2.2 | 6.23
13 | O=C(Nc1ccc(Cl)c(Cl)c1)Nc1ccccc1O | 6.26 | 33.6
14 | CCCCCc1ccc(S(=O)(=O)Nc2cc(-c3csc(NC(C)=O)n3)ccc2N2CCN(C)CC2)cc1 | 3.73 | 8.42
15 | Cn1cc(-c2ccc(-c3cncc(Cl)c3N3CCC4(CCNC4=O)CC3)cc2)cn1 | 19.9 | > 100
16 | CN1CCN(Cc2ccc(NC(=O)c3cncc(C#Cc4cnc5[nH]ncc5c4)c3)cc2C(F)(F)F)CC1 | 1.74 | 13.5
17 | O=C(NCc1ccc(S(=O)(=O)c2cc(F)cc(F)c2)cc1)c1ccc2nccn2c1 | 9.27 | > 100
18 | O=C(N/N=C/c1c(Cl)cccc1Cl)c1ccc(C(F)(F)F)nc1Nc1cccc(C(F)(F)F)c1 | 0.52 | 3.62
19 | COC(C(=O)[C@@H](O)[C@@H](C)O)[C@@H]1Cc2cc3cc(O[C@H]4C[C@@H](O[C@H]5C[C@@H](O)[C@H](O)C(C)O5)[C@H](O)C(C)O4)c(C)c(O)c3c(O)c2C(=O)[C@H]1O[C@H]1C[C@@H](O[C@H]2C[C@@H](O[C@H]3C[C@@H](O)[C@H](OC)C(C)O3)[C@@H](O)C(C)O2)[C@H](O)C(C)O1 (stereo partly specified) | 0.0329 | 0.259

Row | SMILES | GI50 [µM] | TGI [µM]
20 | N#Cc1ccc(OC(=O)Nc2ccc(Cl)c(Cl)c2)cc1 | 3.13 | 15.9
21 | COc1ccc2c(c1)c(-c1cc(N)n3nc(-c4cn(C)c5ccc(OC)cc45)cc3n1)cn2C | 1.87 | 3.66
22 | O=C(OCc1ccc2c(Cl)cc(Cl)c(O)c2n1)N1CCN(C(=O)c2cc3cc(F)ccc3[nH]2)CC1 | 0.558 | > 27.9
23 | CCN(CC)c1cc2oc3cc(N)cc(=N)c-3nc2cc1C | 2.59 | 9.37
24 | COC(=O)CCC1=C(CC(=O)OC)C(C)=N/C1=C\c1[nH]c(-c2ccc[nH]2)cc1OC | 3.48 | 17
25 | COc1ccc(/C=C(/c2ccccc2)[N+](=O)[O-])cc1 | 1.46 | 3.31
26 | Nc1ccccc1SC1CC(=O)N(c2ccc(Cl)c(Cl)c2)C1=O (stereo unspecified) | 18.4 | > 100
27 | CN1CCN(c2ccc(Nc3ncc4cc(C#N)c(=O)n(C5CCCC5)c4n3)cc2)CC1 | 3.46 | > 100
28 | Cc1cc(C)n(-c2nnc3n2N=C(c2ccc(-c4ccccc4)cc2)CS3)n1 | 2.27 | 6.76
29 | CC1C(c2ccc3c(c2)OCO3)c2cc3c(cc2OC1N1CCOCC1)OCO3 (stereo unspecified) | 19.6 | 60.3
30 | O=C(NO)c1ccc(CN(c2cnccn2)c2cnccn2)cc1 | 10.5 | 28.4
31 | COc1c(O)c(O)cc2c1-c1ccc(OC)c(=O)cc1C(NC(C)=O)CC2 (stereo unspecified) | 16.9 | > 100
32 | Cn1c(=O)c2c(ncn2CC(=O)Nc2ccc(-c3ccccc3)nn2)n(C)c1=O | 31.4 | > 100
33 | CCCCCCCCCCN1CCC(N2CCCCC2)CC1 | 1.44 | 3.01
34 | COc1ccc(-c2csc(NC(=O)CSc3nc(C)c(-c4ccccc4)n3Nc3ccccc3)n2)cc1 | > 100 | > 100
35 | CCCCCc1ccc(S(=O)(=O)Nc2cc(-c3csc(NC(=O)CN4CCN(CCO)CC4)n3)ccc2OC)cc1 | 1.75 | 3.6
36 | Cc1c2ccncc2c(C)c2c1[nH]c1ccccc12 | 1.16 | 8.74
37 | C[C@]12CC[C@@H]3c4ccc(O)c([N+](=O)[O-])c4CC[C@H]3[C@@H]1CC[C@@H]2NS(=O)(=O)c1cccc(Br)c1 | 2.74 | 7.69
38 | COc1ccc2c(Oc3ccc(NC(=O)c4c(C)n(CC(C)(C)O)n(-c5ccccc5)c4=O)nc3)ccnc2c1 | 16.1 | > 96.6
